This experiment deals with P388 leukemia ip, CD2F1 mice, survival T/C. The experiment is described as follows: NCI In Vivo Anticancer Drug Screen. Data for tumor model P388 Leukemia (intraperitoneal) in CD2F1 (CDF1) mice. Particulars: endpoint: median survival time, higher = longer survival. A digest of the protocol: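 Mice carrying the transplanted tumor received test compound or vehicle. Survival was recorded in each group, and the value is the treated-group measurement divided by that of the vehicle-treated control group.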

Setting [1] is: dose: 50.0 mg/kg/injection, schedule: Q01DX005 (ip), vehicle: Klucel (hydroxypropylcellulose) (HPC).
[2] abbreviates: dose: 100.0 mg/kg/injection, schedule: Q01DX005 (ip), vehicle: Klucel (hydroxypropylcellulose) (HPC).
[3] abbreviates: dose: 50.0 mg/kg/injection, schedule: Q01DX009 (ip), vehicle: saline with Tween-80.
Setting [4] is: dose: 50.0 mg/kg/injection, schedule: Q01DX005 (ip), vehicle: saline with Tween-80.
[5] abbreviates: dose: 100.0 mg/kg/injection, schedule: Q01DX005 (ip), vehicle: saline with Tween-80.
The mark [6] stands for this setting: dose: 200.0 mg/kg/injection, schedule: Q01DX005 (ip), vehicle: saline with Tween-80.
[7] abbreviates: dose: 60.0 mg/kg/injection, schedule: Q01DX005 (ip), vehicle: Klucel (hydroxypropylcellulose) (HPC).
[8] abbreviates: dose: 120.0 mg/kg/injection, schedule: Q01DX005 (ip), vehicle: Klucel (hydroxypropylcellulose) (HPC).
[9] abbreviates: dose: 240.0 mg/kg/injection, schedule: Q01DX005 (ip), vehicle: Klucel (hydroxypropylcellulose) (HPC).
[10] abbreviates: dose: 200.0 mg/kg/injection, schedule: Q01DX005 (ip), vehicle: Klucel (hydroxypropylcellulose) (HPC).
[11] abbreviates: dose: 6.25 mg/kg/injection, schedule: Q01DX009 (ip), vehicle: saline with Tween-80.
Where [12] appears, read: dose: 12.5 mg/kg/injection, schedule: Q01DX009 (ip), vehicle: saline with Tween-80.
Where [13] appears, read: dose: 6.25 mg/kg/injection, schedule: Q01DX009 (ip), vehicle: water.

The text below walks through data of PubChem BioAssay AID330 (DTP/NCI, 2004).

Values joined by “and” are separate entries in the source; they are usually repeats but may differ in a detail not shown here. Identical values can stand only once. Toxic doses and inconclusive results are not listed.

Consider `O=C(O)C(Cc1c[nH]c2ccccc12)C(=O)NO` (centres undefined), for which the T/C is 97 % of control (dose: 60.0 mg/kg/injection, schedule: Q01DX005 (ip), vehicle: saline); 97 % of control (dose: 120.0 mg/kg/injection, schedule: Q01DX005 (ip), vehicle: saline); 94 % of control (dose: 240.0 mg/kg/injection, schedule: Q01DX005 (ip), vehicle: saline).

For `CC(=O)/C=C/N1CCOCC1`, the T/C was 119 % of control (dose: 50.0 mg/kg/injection, schedule: Q01DX009 (ip), vehicle: saline); 98 % of control (dose: 100.0 mg/kg/injection, schedule: Q01DX009 (ip), vehicle: saline); 103 % of control (dose: 200.0 mg/kg/injection, schedule: Q01DX009 (ip), vehicle: saline).

Turning to `CC1=C(C)C(=O)OC(C(C)C2CCC3C4CC5OC56C(O)CCC(=O)C6(C)C4CCC23C)C1` (centres undefined), the T/C reads like this: (dose: 11.3 mg/kg/injection, schedule: Q01DX009 (ip), vehicle: Klucel (hydroxypropylcellulose) (HPC)) 101 % of control; (dose: 22.6 mg/kg/injection, schedule: Q01DX009 (ip), vehicle: Klucel (hydroxypropylcellulose) (HPC)) 101 % of control; (dose: 45.2 mg/kg/injection, schedule: Q01DX009 (ip), vehicle: Klucel (hydroxypropylcellulose) (HPC)) 100 % of control.

On to `Clc1ccc2c(NCC3CCCN4CCCCC34)ccnc2c1` (centres undefined), for which the T/C under setting [1] is 104 % of control and the T/C under setting [2] was 101 % of control.

Take `CCCCNC(=S)N/N=C/c1ccccn1`: the T/C was 101 % of control (dose: 25.0 mg/kg/injection, schedule: Q01DX009 (ip), vehicle: saline with Tween-80); 94 % of control under setting [3]; 111 % of control (dose: 100.0 mg/kg/injection, schedule: Q01DX009 (ip), vehicle: saline with Tween-80).

For `CN1CCC2CC1Cc1ccc(NS(C)(=O)=O)cc12` (centres undefined), the T/C was 98 % of control under setting [4], 100 % of control under setting [5] and 91 % of control under setting [6].

Take `CC(C)COCC1COC2(OCC(C)(C)C2OC(=O)Nc2ccccc2)O1` (centres undefined): the T/C by setting is: under setting [7], 95 % of control; under setting [8], 94 % of control; under setting [9], 91 % of control.

Turning to `Clc1cc2nsnc2cc1Cl`, the T/C is 100 % of control (dose: 50.0 mg/kg/injection, schedule: Q04DX003 (ip), vehicle: saline); 94 % of control (dose: 100.0 mg/kg/injection, schedule: Q04DX003 (ip), vehicle: saline); 104 % of control (dose: 200.0 mg/kg/injection, schedule: Q04DX003 (ip), vehicle: saline); 101 % of control (dose: 400.0 mg/kg/injection, schedule: Q04DX003 (ip), vehicle: saline).

On to `CC(C)(C)OC(=O)N(C=O)C(Cc1c[nH]c2ccccc12)C(=O)O` (centres undefined), for which the T/C is 100 % of control under setting [1], 103 % of control under setting [2] and 99 % of control under setting [10].

For `COc1cc(C(=O)NNC(C)C)cc(OC)c1OC`, the T/C reads like this: under setting [1], 104 % of control; under setting [2], 100 % of control; under setting [10], 107 % of control.

Take `ClC(Cl)(Cl)c1cccc(C(Cl)(Cl)Cl)c1`: the T/C (dose: 132.0 mg/kg/injection, schedule: Q04DX003 (ip), vehicle: Klucel (hydroxypropylcellulose) (HPC)) is 113 % of control; the T/C (dose: 200.0 mg/kg/injection, schedule: Q04DX003 (ip), vehicle: Klucel (hydroxypropylcellulose) (HPC)) was 100 % of control; the T/C (dose: 264.0 mg/kg/injection, schedule: Q04DX003 (ip), vehicle: saline with Tween-80) was 95 % of control; the T/C (dose: 300.0 mg/kg/injection, schedule: Q04DX003 (ip), vehicle: Klucel (hydroxypropylcellulose) (HPC)) is 113 % of control; the T/C (dose: 400.0 mg/kg/injection, schedule: Q04DX003 (ip), vehicle: saline with Tween-80) was 91 % of control; the T/C (dose: 600.0 mg/kg/injection, schedule: Q04DX003 (ip), vehicle: saline with Tween-80) was 108 % of control.

For `CCOC(=O)/C=C1\COc2nc(N)[nH]c(=O)c2N1`, the T/C was 93 % of control (dose: 12.5 mg/kg/injection, schedule: Q01DX005 (ip), vehicle: Klucel (hydroxypropylcellulose) (HPC)); 91 % of control (dose: 25.0 mg/kg/injection, schedule: Q01DX005 (ip), vehicle: Klucel (hydroxypropylcellulose) (HPC)); 89 % of control under setting [1]; 94 % of control under setting [2]; 91 % of control under setting [10].

On to `CCNC(=O)OCc1c(COC(=O)NCC)c(-c2ccc(Cl)c(Cl)c2)n2c1CCC2`, for which the T/C (dose: 2.5 mg/kg/injection, schedule: Q01DX009 (ip), vehicle: distilled water + Tween-80) is 152 % of control; the T/C under setting [11] is 154 % of control and 168 % of control; the T/C (dose: 10.0 mg/kg/injection, schedule: Q01DX009 (ip), vehicle: distilled water + Tween-80) is 180 % of control; the T/C under setting [12] was 166 % of control and 168 % of control and 170 % of control; the T/C (dose: 20.0 mg/kg/injection, schedule: Q01DX009 (ip), vehicle: distilled water + Tween-80) was 90 % of control.

As to `CC1CCCN2C(=O)CN(C3CCCCC3)CC(=O)N12` (centres undefined), the T/C was 100 % of control under setting [4], 100 % of control under setting [5] and 100 % of control under setting [6].

Consider `CN1N=C(N)c2cn(C3OC(COP(=O)(O)O)C(O)C3O)c3ncnc1c23` (centres undefined), for which the T/C is 124 % of control under setting [13]; 122 % of control (dose: 20.0 mg/kg/injection, schedule: Q01DX005 (ip), vehicle: saline); 124 % of control (dose: 38.0 mg/kg/injection, schedule: Q01DX005 (ip), vehicle: water).

Take `c1cc2c(ncn3nnnc23)[nH]1`: the T/C reads like this: under setting [13], 91 % of control; (dose: 12.5 mg/kg/injection, schedule: Q01DX009 (ip), vehicle: water) 107 % of control; (dose: 25.0 mg/kg/injection, schedule: Q01DX009 (ip), vehicle: water) 108 % of control; (dose: 50.0 mg/kg/injection, schedule: Q01DX009 (ip), vehicle: water) 109 % of control; (dose: 100.0 mg/kg/injection, schedule: Q01DX009 (ip), vehicle: water) 118 % of control.

`CCOC(=O)c1sc(SSc2sc(C(=O)OCC)c(C)c2[N+](=O)[O-])c([N+](=O)[O-])c1C`: the T/C by setting is: (dose: 1.56 mg/kg/injection, schedule: Q01DX009 (ip), vehicle: saline with Tween-80) 94 % of control; (dose: 3.12 mg/kg/injection, schedule: Q01DX009 (ip), vehicle: saline with Tween-80) 101 % of control; under setting [11], 93 % of control; under setting [12], 88 % of control; (dose: 25.0 mg/kg/injection, schedule: Q04DX003 (ip), vehicle: saline with Tween-80) 102 % of control; (dose: 50.0 mg/kg/injection, schedule: Q04DX003 (ip), vehicle: saline with Tween-80) 93 % of control. Moreover, the T/C (dose: 100.0 mg/kg/injection, schedule: Q04DX003 (ip), vehicle: saline with Tween-80) is 86 % of control and 97 % of control.

In the case of `CCN(CCO)CC(O)Cn1cnc2ncnc(N)c21` (centres undefined) (tested in a mixture with another compound), the T/C was 97 % of control under setting [7], 94 % of control under setting [8] and 95 % of control under setting [9].

Take `OCN(CO)c1nc(N(CO)CO)nc(N(CO)CO)n1`: the T/C is, setting by setting: (dose: 6.3 mg/kg/injection, schedule: Q01DX009 (ip), vehicle: saline with Tween-80) 109 % of control; under setting [12], 106 % of control; under setting [3], 108 % of control.

With `COc1cc(/C=C/C(C)=N/NC(N)=O)cc(OC)c1OC`, the T/C by setting is: (dose: 30.0 mg/kg/injection, schedule: Q01DX005 (ip), vehicle: Klucel (hydroxypropylcellulose) (HPC)) 103 % of control; under setting [7], 100 % of control; under setting [8], 103 % of control; under setting [9], 104 % of control.

For `C/C(=C\c1ccc(OCC(=O)O)c(Cl)c1Cl)[N+](=O)[O-]`, the T/C was 100 % of control and 102 % of control (dose: 12.5 mg/kg/injection, schedule: Q01DX001 (ip), vehicle: saline with Tween-80); 98 % of control and 100 % of control (dose: 25.0 mg/kg/injection, schedule: Q01DX001 (ip), vehicle: saline with Tween-80).

On to `Cc1ccc(CN2CC(=O)N3Cc4ccccc4CN3C(=O)C2)cc1`, for which the T/C is 103 % of control under setting [4], 116 % of control under setting [5] and 98 % of control under setting [6].
